Reference: patent US8247211B2, “Glycopeptide antibiotics” (American Cyanamid Company, priority 2001, dated 2012)
Converted amounts (≈) assume the structure as drawn.

Assays:
Test in all cases: In vitro antibacterial evaluation: minimum inhibitory concentration (MIC), broth dilution method
Assay type in all cases: cell-based
[1] = system: Escherichia coli; details: 5×10^5 CFU/mL, 18 hours at 35° C.
Description: (§1) The minimum inhibitory concentration (MIC), the lowest concentration of the antibiotic which inhibits growth of the test organism, is determined by the broth dilution method using Muller-Hinton II […] (Baltimore Biological Laboratories) following the recommendations of the National Committee for Clinical Laboratory Standards [Methods for dilution antimicrobial susceptibility tests for bacteria that grow aerobically, approved standard M7-A2, National Committee for Clinical Laboratory Standards, Villanova, Pa].
(§2) An inoculum level of 5×10^5 CFU/mL, and a range of antibiotic concentrations (64-0.06 μg/mL) is used. […] The test organisms include a spectrum of Gram-positive bacteria comprised of Staphylococcus sp., Streptococcus sp. and Enterococcus sp. These organisms include recent clinical isolates that are resistant to methicillin, penicillin and/or vancomycin.

[2] = system: Enterococcus sp.; details: broth dilution, 5×10^5 CFU/mL, 18 hours at 35° C.
Description: as §1, §2

[3] = system: Staphylococcus sp.; details: for MIC Staphylococcus aureus (ATCC 29213): strain ATCC 29213; for MIC Staphylococcus aureus (GC 1131): strain GC 1131; for MIC Staphylococcus aureus (GC 3051): strain GC 3051; for MIC Staphylococcus aureus (GC 3053): strain GC 3053; for MIC Staphylococcus aureus (GC 4541): strain GC 4541; for MIC Staphylococcus aureus (GC 4542): strain GC 4542; for MIC Staphylococcus aureus-SMITH (GC 4543): strain GC 4543; for MIC Staphylococcus aureus (GC 4544): strain GC 4544; for MIC Staphylococcus aureus (GC 4545): strain GC 4545; for MIC Coagulase Negative Staphylococcus (GC 4547): strain GC 4547; for MIC Coagulase Negative Staphylococcus (GC 4551): strain GC 4551
Description: as §1, §2

[4] = system: Streptococcus sp.; details: broth dilution, 5×10^5 CFU/mL, 18 hours at 35° C.
Description: as §1, §2

[5] = broth dilution, 18 hours at 35° C.

MIC Escherichia coli (GC 4559) [1]: 16 µg/mL (≈ 10.8 µM)
MIC Escherichia coli (GC 4560) [1]: 1 µg/mL (≈ 0.677 µM)
MIC Enterococccus avium (GC 4558) [2]: 1 to 2 µg/mL
MIC Enterococccus faecalis (ATCC 29212) [2]: 1 to 2 µg/mL
MIC Enterococccus faecalis (GC 2691) [2]: 1 to 2 µg/mL
MIC Enterococccus faecalis (GC 3059) [2]: 1 to 2 µg/mL
MIC Enterococccus faecalis (GC 4552) [2]: 1 to 2 µg/mL
MIC Enterococccus faecalis (GC 4553) [2]: 1 to 2 µg/mL
MIC Enterococccus faecalis (GC 4554) [2]: 1 to 2 µg/mL
MIC Enterococccus faecalis (GC 6189) [2]: 1 to 2 µg/mL
MIC Enterococccus faecium (GC 2243) [2]: 1 µg/mL (≈ 0.677 µM)
MIC Enterococccus faecium (GC 4556) [2]: <0.5 to 1 µg/mL
MIC Enterococccus faecium (GC 4557) [2]: <0.5 to 2 µg/mL
MIC Enterococcus faecalis (GC 2242) [2]: <0.5 to 2 µg/mL
MIC Staphylococcus aureus (ATCC 29213) [3]: <0.5 to 1 µg/mL
MIC Staphylococcus aureus (ATCC 29213) [3, 5]: <0.5 to 1 µg/mL
MIC Staphylococcus aureus (GC 1131) [3]: <0.5 to 1 µg/mL
MIC Staphylococcus aureus (GC 1131) [3, 5]: <0.5 to 1 µg/mL
MIC Staphylococcus aureus (GC 3051) [3]: <0.5 to 1 µg/mL
MIC Staphylococcus aureus (GC 3051) [3, 5]: <0.5 to 1 µg/mL
MIC Staphylococcus aureus (GC 3053) [3]: 1 µg/mL (≈ 0.677 µM)
MIC Staphylococcus aureus (GC 3053) [3, 5]: 1 µg/mL (≈ 0.677 µM)
MIC Staphylococcus aureus (GC 4541) [3]: <0.5 to 1 µg/mL
MIC Staphylococcus aureus (GC 4541) [3, 5]: <0.5 to 1 µg/mL
MIC Staphylococcus aureus (GC 4542) [3]: <0.5 to 1 µg/mL
MIC Staphylococcus aureus (GC 4542) [3, 5]: <0.5 to 1 µg/mL
MIC Staphylococcus aureus-SMITH (GC 4543) ([3]; 18 hours at 35° C.): <0.5 to 1 µg/mL
MIC Staphylococcus aureus-SMITH (GC 4543) [3, 5]: <0.5 to 1 µg/mL
MIC Staphylococcus aureus (GC 4544) [3]: <0.5 to 1 µg/mL
MIC Staphylococcus aureus (GC 4544) [3, 5]: <0.5 to 1 µg/mL
MIC Staphylococcus aureus (GC 4545) [3]: <0.5 to 1 µg/mL
MIC Staphylococcus aureus (GC 4545) [3, 5]: <0.5 to 1 µg/mL
MIC Coagulase Negative Staphylococcus (GC 4547) [3]: <0.5 to 1 µg/mL
MIC Coagulase Negative Staphylococcus (GC 4547) [3, 5]: <0.5 to 1 µg/mL
MIC Coagulase Negative Staphylococcus (GC 4551) [3]: <0.5 to 1 µg/mL
MIC Coagulase Negative Staphylococcus (GC 4551) [3, 5]: <0.5 to 1 µg/mL
MIC Streptococcus agalactiae (GC 4564) [4]: <0.06 µg/mL
MIC Streptococcus pneumoniae (GC 1894) [4]: <0.06 µg/mL
MIC Streptococcus pneumoniae (GC 4565) [4]: <0.06 µg/mL
MIC Streptococcus pneumonine (ATCC 6301) [4]: <0.06 µg/mL
MIC Streptococcus pyogenes (GC 4563) [4]: <0.06 µg/mL
Compound: CC(c1ccccc1)C1NC(=O)CNC(=O)C(CO)NC(=O)C(C(O)C2CNC(=N)N2C2OC(CO)C(O)C(O)C2O)NC(=O)C(C(O)C2CNC(=N)N2)NC(=O)C(Cc2ccc(OC3OC(CO)C(OC4OC5COC(Cc6ccc(Br)cc6)OC5C(O)C4O)C(O)C3O)cc2)NC1=O (stereo not drawn) [Example 118, Cyclo[glycyl-β-methylphenylalanyl-O-[4-O-[4,6-O-(4-bromophenethylidene)hexopyranosyl]-hexopyranosyl]tyrosyl-3-(2-iminoimidazolidin-4-yl)seryl-3-(3-hexopyranosyl-2-iminoimidazolidin-4-yl)serylseryl]]
